# Measurements as given in ChEMBL document CHEMBL1149649, “Synthesis and anti-influenza activities of carboxyl alkoxyalkyl esters of 4-guanidino-Neu5Ac2en (zanamivir)” (Bioorg Med Chem Lett, 2007).
# What was measured:
# Influenza A virus [1] = assay: Antiviral activity against influenza A/Jifang/15/90 (H3N2) virus in MDCK cells by CPE assay; type: functional, organism-based
# Influenza A virus [2] = assay: Antiviral activity against influenza A/Yuefang/243/72 (H3N2) virus in MDCK cells by CPE assay; type: functional, organism-based
# Influenza B virus [3] = assay: Antiviral activity against influenza B/Jifang/13/97 virus in MDCK cells by CPE assay; type: functional, organism-based
# Influenza A virus [4] = assay: Antiviral activity against influenza A/Jingfang/262/95(H1N1) virus in MDCK cells by CPE assay; type: functional, organism-based
# Influenza B virus [5] = assay: Antiviral activity against influenza B/Jingfang/76/98 in MDCK cells by CPE assay; type: functional, organism-based
# Influenza A virus [6] = assay: Antiviral activity against influenza A/Hanfang/359/95 (H3N2) virus in MDCK cells by CPE assay; type: functional, organism-based
# Influenza B virus [7] = assay: Antiviral activity against influenza B/Sichuan/83/2000 virus in MDCK cells by CPE assay; type: functional, organism-based
# Mus musculus [8] = assay: Weight change in mouse at 125 mg/kg, po bid after 14 days; type: ADME, organism-based; set-up: dose 125 mg/kg, route oral; details: in vivo, 336 h
# Mus musculus [9] = assay: Survival of mouse at 62.5 mg/kg, ip bid after 5 days; type: ADME, organism-based; set-up: dose 62.5 mg/kg, route intraperitoneal; details: in vivo, 120 h
# Influenza A virus [10] = assay: Antiviral activity against influenza A/Jingfang/Fm1 (H1N1) infected in mouse assessed as survival of mouse at 31.25 mg/kg, po bid after 2 hrs of viral infection for 5 days; type: functional
# Influenza A virus [11] = assay: Antiviral activity against influenza A/Jingfang/Fm1 (H1N1) infected in mouse assessed as mean survival time of mouse at 31.25 mg/kg, po bid after 2 hrs of viral infection for 5 days; type: functional
# Influenza A virus [12] = assay: Antiviral activity against influenza A/Jingfang/Fm1 (H1N1) infected in mouse assessed as mean survival time of mouse at 125 mg/kg, po bid after 2 hrs of viral infection for 5 days; type: functional
# Influenza A virus [13] = assay: Antiviral activity against influenza A/Jingfang/Fm1 (H1N1) infected in mouse assessed as mean survival time of mouse at 62.5 mg/kg, ip bid after 2 hrs of viral infection for 5 days; type: functional; details: route intraperitoneal
# Influenza A virus [14] = assay: Antiviral activity against influenza A/Jingfang/Fm1 (H1N1) infected in mouse assessed as survival of mouse at 62.5 mg/kg, ip bid after 2 hrs of viral infection for 5 days; type: functional; details: route intraperitoneal
# Mus musculus [15] = assay: Survival of mouse at 31.25 mg/kg, po bid after 5 days; type: ADME, organism-based; set-up: dose 31.25 mg/kg, route oral; details: in vivo, 120 h
# Influenza A virus [16] = assay: Antiviral activity against influenza A/Jingfang/Fm1 (H1N1) infected in mouse assessed as survival of mouse at 62.5 mg/kg, po bid after 2 hrs of viral infection for 5 days; type: functional
# Mus musculus [17] = assay: Weight change in mouse at 62.5 mg/kg, ip bid after 14 days; type: ADME, organism-based; set-up: dose 62.5 mg/kg, route intraperitoneal; details: in vivo, 336 h
# Mus musculus [18] = assay: Weight change in mouse at 62.5 mg/kg, po bid after 14 days; type: ADME, organism-based; set-up: dose 62.5 mg/kg, route oral; details: in vivo, 336 h
# Mus musculus [19] = assay: Survival of mouse at 125 mg/kg, po bid after 5 days; type: ADME, organism-based; set-up: dose 125 mg/kg, route oral; details: in vivo, 120 h
# Influenza A virus [20] = assay: Antiviral activity against influenza A/Jingfang/Fm1 (H1N1) virus infected in mouse assessed as survival of mouse at 125 mg/kg, po bid after 2 hrs of viral infection for 5 days; type: functional
# Influenza A virus [21] = assay: Antiviral activity against influenza A/Jingfang/Fm1 (H1N1) infected in mouse assessed as mean survival time of mouse at 62.5 mg/kg, po bid after 2 hrs of viral infection for 5 days; type: functional
# Mus musculus [22] = assay: Survival of mouse at 62.5 mg/kg, po bid after 5 days; type: ADME, organism-based; set-up: dose 62.5 mg/kg, route oral; details: in vivo, 120 h
# Mus musculus [23] = assay: Weight change in mouse at 31.25 mg/kg, po bid after 14 days; type: ADME, organism-based; set-up: dose 31.25 mg/kg, route oral; details: in vivo, 336 h
# Influenza A virus [24] = assay: Antiviral activity against influenza A/Jingfang/Fm1 (H1N1) infected in mouse assessed as mean survival time of mouse at 100 mg/kg, ip bid after 2 hrs of viral infection for 5 days; type: functional; details: route intraperitoneal
# Mus musculus [25] = assay: Weight change in mouse at 100 mg/kg, ip bid after 14 days; type: ADME, organism-based; set-up: dose 100 mg/kg, route intraperitoneal; details: in vivo, 336 h
# Mus musculus [26] = assay: Survival of mouse at 100 mg/kg, ip bid after 5 days; type: ADME, organism-based; set-up: dose 100 mg/kg, route intraperitoneal; details: in vivo, 120 h
Compound,IC50 (Influenza A virus [1]) [nM],IC50 (Influenza A virus [2]) [nM],IC50 (Influenza B virus [3]) [µM],"IC50 (Influenza A virus [4]; Influenza A virus, MDCK) [µM]",IC50 (Influenza B virus [5]) [µM],IC50 (Influenza A virus [6]) [µM],IC50 (Influenza B virus [7]) [µM],other results
CCCCCCCCCCCCCCCCOCCCOC(=O)C1=C[C@H](NC(=N)N)[C@@H](NC(C)=O)[C@H]([C@H](O)[C@H](O)CO)O1,3010,301,23.4,18.1,22.3,3.06,22.3,–
CCCCCCCCCCCCCCOCCCOC(=O)C1=C[C@H](NC(=N)N)[C@@H](NC(C)=O)[C@H]([C@H](O)[C@H](O)CO)O1,2490,315,31.5,18.9,23.3,1.06,37.8,–
CCCCCCCCCCCCCCCCCCOCCOC(=O)C1=C[C@H](NC(=N)N)[C@@H](NC(C)=O)[C@H]([C@H](O)[C@H](O)CO)O1,2940,226,247,26.8,66.6,5.89,21.8,Activity (Mus musculus [8]): 12.5 g; Activity (Mus musculus [9]): Active; survival at 31.25 mg/kg (Influenza A virus [10]): 10%; Activity (Influenza A virus [11]): 9.1 days; Activity (Influenza A virus [12]): 11.2 days; Activity (Influenza A virus [13]): 11.5 days; survival at 62.5 mg/kg (Influenza A virus [14]): 60%; Activity (Mus musculus [15]): Active; survival at 62.5 mg/kg (Influenza A virus [16]): 40%; Activity (Mus musculus [17]): 13.9 g; Activity (Mus musculus [18]): 13.5 g; Activity (Mus musculus [19]): Active; survival at 125 mg/kg (Influenza A virus [20]): 60%; Activity (Influenza A virus [21]): 10.2 days; Activity (Mus musculus [22]): Active; Activity (Mus musculus [23]): 12.7 g
NC(=O)c1ncn([C@@H]2O[C@H](CO)[C@@H](O)[C@H]2O)n1 [RIBAVIRIN],5040,5850,96.2,176,15.2,7.01,164,Activity (Influenza A virus [24]): 14 days; Activity (Mus musculus [25]): 11.5 g; Activity (Mus musculus [26]): Active
CC(=O)N[C@H]1[C@H]([C@H](O)[C@H](O)CO)OC(C(=O)O)=C[C@@H]1NC(=N)N [ZANAMIVIR],469,75,–,–,223,0.385,1580,IC50 (Influenza A virus [4]; mdck): 16.7 µM
